Legend:
Format in all cases: functional
Enterococcus faecium = assay: Antibacterial activity against glycopeptide-resistant Enterococcus faecium Efm-HS-0649 assessed as reduction in microbial growth incubated for 24 hrs by broth microdilution method
Staphylococcus aureus [1] = assay: Antibacterial activity against methicillin-susceptible Staphylococcus aureus Newman ATCC 25904 assessed as reduction in microbial growth incubated for 24 hrs by broth microdilution method
Staphylococcus aureus [2] = assay: Antibacterial activity against methicillin-resistant Staphylococcus aureus USA300 assessed as reduction in microbial growth incubated for 24 hrs by broth microdilution method
Staphylococcus aureus [3] = assay: Antibacterial activity against vancomycin-intermediate resistant Staphylococcus aureus Mu 50 assessed as reduction in microbial growth incubated for 24 hrs by broth microdilution method

SMILES | MIC (Enterococcus faecium) | MIC (Staphylococcus aureus [1]) | MIC (Staphylococcus aureus [2]) | MIC (Staphylococcus aureus [3])
CCCCCCCCCC(=O)N[C@@H](Cc1c[nH]c2ccccc12)C(=O)N[C@H](CC(N)=O)C(=O)N[C@@H](CC(=O)O)C(=O)N[C@@H]1C(=O)NCC(=O)N[C@@H](CCCN)C(=O)N[C@@H](CC(=O)O)C(=O)N[C@H](C)C(=O)N[C@@H](CC(=O)O)C(=O)NCC(=O)N[C@H](CO)C(=O)N[C@@H]([C@H](C)CC(=O)O)C(=O)N[C@@H](CC(=O)c2ccccc2NCCC2C(=O)C=CC2=O)C(=O)O[C@@H]1C (single isomer, unassigned) | 128 µg/mL | 128 µg/mL | 128 µg/mL | > 128 µg/mL
CCCCCCCCCC(=O)N[C@@H](Cc1c[nH]c2ccccc12)C(=O)N[C@H](CC(N)=O)C(=O)N[C@@H](CC(=O)O)C(=O)N[C@@H]1C(=O)NCC(=O)N[C@@H](CCCN)C(=O)N[C@@H](CC(=O)O)C(=O)N[C@H](C)C(=O)N[C@@H](CC(=O)O)C(=O)NCC(=O)N[C@H](CO)C(=O)N[C@@H]([C@H](C)CC(=O)O)C(=O)N[C@@H](CC(=O)c2ccccc2NCCC[S+](C)CC(O)CC)C(=O)O[C@@H]1C (single isomer, unassigned) | > 128 µg/mL | > 128 µg/mL | > 128 µg/mL | > 128 µg/mL
CCCCCCCCCC(=O)N[C@@H](Cc1c[nH]c2ccccc12)C(=O)N[C@H](CC(N)=O)C(=O)N[C@@H](CC(=O)O)C(=O)N[C@@H]1C(=O)NCC(=O)N[C@@H](CCCN)C(=O)N[C@@H](CC(=O)O)C(=O)N[C@H](C)C(=O)N[C@@H](CC(=O)O)C(=O)NCC(=O)N[C@H](CO)C(=O)N[C@@H]([C@H](C)CC(=O)O)C(=O)N[C@@H](CC(=O)c2ccccc2NCC(=O)O)C(=O)O[C@@H]1C | 128 µg/mL | 32 µg/mL | 32 µg/mL | 128 µg/mL
CCCCCCCCCC(=O)N[C@@H](Cc1c[nH]c2ccccc12)C(=O)N[C@H](CC(N)=O)C(=O)N[C@@H](CC(=O)O)C(=O)N[C@@H]1C(=O)NCC(=O)N[C@@H](CCCN)C(=O)N[C@@H](CC(=O)O)C(=O)N[C@H](C)C(=O)N[C@@H](CC(=O)O)C(=O)NCC(=O)N[C@H](CO)C(=O)N[C@@H]([C@H](C)CC(=O)O)C(=O)N[C@@H](CC(=O)c2ccccc2NCc2ccc3c(c2)CCO3)C(=O)O[C@@H]1C | 2 µg/mL | 1 µg/mL | 1 µg/mL | 4 µg/mL
CCCCCCCCCC(=O)N[C@@H](Cc1c[nH]c2ccccc12)C(=O)N[C@H](CC(N)=O)C(=O)N[C@@H](CC(=O)O)C(=O)N[C@@H]1C(=O)NCC(=O)N[C@@H](CCCN)C(=O)N[C@@H](CC(=O)O)C(=O)N[C@H](C)C(=O)N[C@@H](CC(=O)O)C(=O)NCC(=O)N[C@H](CO)C(=O)N[C@@H]([C@H](C)CC(=O)O)C(=O)N[C@@H](CC(=O)c2ccccc2NCCCSC)C(=O)O[C@@H]1C (single isomer, unassigned) | 1 µg/mL | 1 µg/mL | 0.5 µg/mL | 4 µg/mL
CCCCCCCCCC(=O)N[C@@H](Cc1c[nH]c2ccccc12)C(=O)N[C@H](CC(N)=O)C(=O)N[C@@H](CC(=O)O)C(=O)N[C@@H]1C(=O)NCC(=O)N[C@@H](CCCN)C(=O)N[C@@H](CC(=O)O)C(=O)N[C@H](C)C(=O)N[C@@H](CC(=O)O)C(=O)NCC(=O)N[C@H](CO)C(=O)N[C@@H]([C@H](C)CC(=O)O)C(=O)N[C@@H](CC(=O)c2ccccc2NCC2CCCCC2)C(=O)O[C@@H]1C (single isomer, unassigned) | 1 µg/mL | 1 µg/mL | 0.5 µg/mL | 4 µg/mL
CCCCCCCCCC(=O)N[C@@H](Cc1c[nH]c2ccccc12)C(=O)N[C@H](CC(N)=O)C(=O)N[C@@H](CC(=O)O)C(=O)N[C@@H]1C(=O)NCC(=O)N[C@@H](CCCN)C(=O)N[C@@H](CC(=O)O)C(=O)N[C@H](C)C(=O)N[C@@H](CC(=O)O)C(=O)NCC(=O)N[C@H](CO)C(=O)N[C@@H]([C@H](C)CC(=O)O)C(=O)N[C@@H](CC(=O)c2ccccc2NCCC[S+](C)[O-])C(=O)O[C@@H]1C (stereo partly drawn) | 128 µg/mL | 128 µg/mL | 128 µg/mL | > 128 µg/mL
